From patent US20020107404A1, “Sulfur-containing indirubin derivatives, their production and use” (Schering AG, priority 2000, published 2002)

What was measured:
MCF-7 = assay: Proliferation assay, MCF-7; format: cell-based, human; conditions: MCF7, 96 h, 4 days incubation, crystal violet
Experimental: (§1) Cultivated human tumor cells (as indicated) were flattened out at a density of 5000 cells/measuring point in a 96-well multititer plate in 200 μl of the corresponding growth medium. After 24 hours, the cells of one plate (zero-point plate) were colored with crystal violet (see below), while the medium of the other plates was replaced by fresh culture medium (200 μl), to which the test substances were added in various concentrations (0 μm, as well as in the range of 0.01-30 μm; the final concentration of the solvent dimethyl sulfoxide was 0.5%. The cells were incubated for 4 days in the presence of test substances. The cell proliferation was determined by coloring the cells with crystal violet: the cells were fixed by adding 20 μl/measuring point of a 11% glutaric aldehyde solution for 15 minutes at room temperature. After three washing cycles of the fixed cells with water, the plates were dried at room temperature. The cells were colored by adding 100 μl/measuring point of a 0.1% crystal violet solution (pH was set at 3 by adding acetic acid). After three washing cycles of the colored cells with water, the plates were dried at room temperature. The dye was dissolved by adding 100 μl/measuring point of a 10% acetic acid solution. The extinction was determined by photometry at a wavelength of 595 nm. The change of cell growth, in percent, was calculated by standardization of the measured values to the extinction values of the zero-point plate (=0%) and the extinction of the untreated (0 μm) cells (=100%).

CDK2/CycE = molecular target: T1, CDK2/CycE (Homo sapiens, UniProt P24941); assay: CDK2/CycE kinase assay; format: biochemical; conditions: recombinant CDK2/CycE, histone IIIS substrate, 0.5 μm ATP
T1 construct: GST; purchased Dr. Dieter Marmé, Klinik für Tumorbiologie, Freiburg (external academic supplier); host or cells: baculovirus-infected Sf9 insect cells
Experimental: Recombinant CDK2- and CycE-GST-fusion proteins, purified from baculovirus-infected insect cells (Sf9), were obtained by Dr. Dieter Marmé, Klinik für Tumorbiologie [Clinic for Tumor Biology], Freiburg. Histone IIIS, which was used as a kinase substrate, was purchased by the Sigma Company.
CDK2/CycE (50 ng/measuring point) was incubated for 15 minutes at 22° C. in the presence of various concentrations of test substances (0 μm, as well as within the range of 0.01-100 μm) in assay buffer [50 mmol of tris/HCl pH 8.0, 10 mmol of MgCl2, 0.1 mmol of Na ortho-vanadate, 1.0 mmol of dithiothreitol, 0.5 μm of adenosine triphosphate (ATP), 10 μg/measuring point of histone IIIS, 0.2 μCi/measuring point of ^33P-gamma ATP, 0.05% NP40, 12.5% dimethyl sulfoxide]. The reaction was stopped by adding EDTA solution (250 mmol, pH 8.0, 14 μl/measuring point).
From each reaction batch, 10 μl was applied to P30 filter strips (Wallac Company), and non-incorporated ^33P-ATP was removed by subjecting the filter strips to three washing cycles for 10 minutes each in 0.5% phosphoric acid. After the filter strips were dried for one hour at 70° C., the filter strips were covered with scintillator strips (MeltiLex™ A, Wallac Company) and baked for one hour at 90° C. The amount of incorporated ^33p (substrate phosphorylation) was determined by scintillation measurement in a gamma-radiation measuring device (Wallac).

DU145 = assay: Proliferation assay, DU145; format: cell-based; conditions: Homo sapiens, DU-145, 96 h; comparison table; 4 days incubation, crystal violet
Experimental: as §1, with “After three washing cycles of the colored cells with water, the plates were dried at room temperature. The dye was dissolved by adding 100 μl/measuring point of a 10% acetic acid solution.” left out

H460 = assay: Proliferation assay, H460; format: cell-based; conditions: Homo sapiens, NCI-H460, 96 h; comparison table; 4 days incubation, crystal violet
Experimental: as §1, with “After three washing cycles of the colored cells with water, the plates were dried at room temperature. The dye was dissolved by adding 100 μl/measuring point of a 10% acetic acid solution.” left out

HCT116 = assay: Proliferation assay, HCT116; format: cell-based; conditions: Homo sapiens, HCT-116, 96 h; comparison table; 4 days incubation, crystal violet
Experimental: as §1, with “After three washing cycles of the colored cells with water, the plates were dried at room temperature. The dye was dissolved by adding 100 μl/measuring point of a 10% acetic acid solution.” left out

| melting point [°C] | IC50 (MCF-7; Homo sapiens, comparison table) [nM] | IC50 (CDK2/CycE; comparison table) [nM] | IC50 (DU145) [nM] | IC50 (H460) [nM] | IC50 (HCT116) [nM] | IC50 (MCF-7; human tumor cells) [nM] | IC50 (CDK2/CycE) [nM] | SMILES |
| --- | --- | --- | --- | --- | --- | --- | --- | --- |
| > 210 | 500 | 300 | – | – | – | – | – | CSc1ccc2c(c1)/C(=C1/Nc3ccccc3C1=O)C(=O)N2 [Example 1.0, 5-Methylsulfanyl-indirubin] |
| 284 | 1500 | 80 | 6000 | 4000 | 2500 | – | – | C[S+]([O-])c1ccc2c(c1)/C(=C1/Nc3ccccc3C1=O)C(=O)N2 (stereo not drawn) [Example 2.0, 5-Methylsulfinyl-indirubin] |
| 156 | 700 | 20 | 1000 | 1000 | 600 | – | – | CSc1ccc2c(c1)/C(=C1/Nc3ccccc3/C1=N\O)C(=O)N2 [Example 4.0, 5-Methylsulfanyl-3′,-hydroyimino-indirubin] |
| – | – | – | – | – | – | 5000 | 110 | CSc1ccc2c(c1)/C(=C1/Nc3ccc(NC(C)=O)cc3C1=O)C(=O)N2 [Example 5.0, 5-Methysulfanyl-5′-N-acetylindirubin] |
| – | – | – | – | – | – | – | 5000 | CSc1ccc2c(c1)/C(=C1/Nc3ccc(OCc4ccccc4)cc3C1=O)C(=O)N2 [Example 5.1] |
